Patent publication US9849132B2, “Products and pharmaceutical compositions” (Intra-Cellular Therapies, Inc., priority 2014, dated 2017)
pIC50: −log10 of the molar value.

Biological target: PDE1 (3′,5′-cyclic-nucleotide-specific bovine brain phosphodiesterase)
Assay: Measurement of PDE1 inhibition in vitro using IMAP phosphodiesterase assay kit
Type: biochemical
Conditions: IMAP fluorescence polarization, FL-GMP substrate, bovine brain phosphodiesterase with calmodulin
Text: Phosphodiesterase 1B (PDE1B) is a calcium/calmodulin dependent phosphodiesterase enzyme that converts cyclic guanosine monophosphate (cGMP) to 5′-guanosine monophosphate (5′-GMP). PDE1B can also convert a modified cGMP substrate, such as the fluorescent molecule cGMP-fluorescein, to the corresponding GMP-fluorescein. The generation of GMP-fluorescein from cGMP-fluorescein can be quantitated, using, for example, the IMAP (Molecular Devices, Sunnyvale, Calif.) immobilized-metal affinity particle reagent.
Briefly, the IMAP reagent binds with high affinity to the free 5′-phosphate that is found in GMP-fluorescein and not in cGMP-fluorescein. The resulting GMP-fluorescein—IMAP complex is large relative to cGMP-fluorescein. Small fluorophores that are bound up in a large, slowly tumbling, complex can be distinguished from unbound fluorophores, because the photons emitted as they fluoresce retain the same polarity as the photons used to excite the fluorescence.
In the phosphodiesterase assay, cGMP-fluorescein, which cannot be bound to IMAP, and therefore retains little fluorescence polarization, is converted to GMP-fluorescein, which, when bound to IMAP, yields a large increase in fluorescence polarization (Δmp). Inhibition of phosphodiesterase, therefore, is detected as a decrease in Δmp. […]
A decrease in GMP concentration, measured as decreased Δmp, is indicative of inhibition of PDE activity. […]

pIC50: 9.98
Compound: CN1C(=O)c2c(nn(Cc3ccc(-c4ccccn4)cc3)c2Nc2ccccc2)N2C1=N[C@@H]1CCC[C@@H]12 [Example 1, (6aR,9aS)-5,6a,7,8,9,9a-hexahydro-5-methyl-3-(phenylamino)-2-((4-Pyridin-2yl)-benzyl)-cyclopent[4,5]imidazo[1,2-a]pyrazolo[4,3-e]pyrimidin-4(2H)-one]
